Data as given in patent US9695160B2, “Piperazine derivatives for treating disorders” (THE UNIVERSITY OF NOTTINGHAM, priority 2014, dated 2017).
“Also recorded” adds a separate entry of the source. Read-outs that look alike come from different tables or passages of the source. Values belong to the molecule of their own block, whether it stands above or below them.

Tests used:
[1] = Solubility in water of salt forms; details: salt forms versus free compounds
SRSF1 localisation [2] = assay: SRSF1 nuclear localisation by immunofluorescence in PC3 cells; assay type: cell-based
in vitro = details: human
From the text: We also tested the half life of these compounds when exposed to human liver microsomes.

[3] = Scleral permeability, modified Ussing chamber, rabbit eye tissue; details: rabbit sclera; for detection in the vitreous: 24 hours
Protocol: (§1) Scleral permeability was measured using a modified Ussing chamber assembly in isotonic assay buffer (pH 7.4). Rabbit or porcine excised eye tissues were mounted in the chambers such that the episcleral side faced the donor chamber and the retinal side faced the receiver chamber. The chambers were filled with equal volumes of assay buffer, with (donor side) or without (receiver side) 1 μg/ml compound. After 4 or 24 hours tissue was removed from the chamber and the receiver side (“vitreous”) sampled. Tissue was dissected into sclera, choroid/RPE, and retina and homogenised.
(§2) After 0, 4 or 24 hours, the fluid from the bottom chamber (vitreous) and the retinal tissue was isolated and compounds purified by acetonitrile extraction and HPLC.

VEGF165b [4] = assay: VEGF165b expression in RPE cells; assay type: cell-based
SRSF1 localisation [5] = assay: SRSF1 nuclear localisation by immunofluorescence in MDA-MB231 cells; assay type: cell-based
SRPK1 [6] = molecular target: T1, SRPK1 (Homo sapiens (Human), UniProt Q96SB4); assay: In vitro kinase assay (Kinase-Glo), SRPK1 inhibition; assay type: biochemical; details: Table 2, SRPK1 inhibition assay
T1 sequence (Q96SB4 whole entry): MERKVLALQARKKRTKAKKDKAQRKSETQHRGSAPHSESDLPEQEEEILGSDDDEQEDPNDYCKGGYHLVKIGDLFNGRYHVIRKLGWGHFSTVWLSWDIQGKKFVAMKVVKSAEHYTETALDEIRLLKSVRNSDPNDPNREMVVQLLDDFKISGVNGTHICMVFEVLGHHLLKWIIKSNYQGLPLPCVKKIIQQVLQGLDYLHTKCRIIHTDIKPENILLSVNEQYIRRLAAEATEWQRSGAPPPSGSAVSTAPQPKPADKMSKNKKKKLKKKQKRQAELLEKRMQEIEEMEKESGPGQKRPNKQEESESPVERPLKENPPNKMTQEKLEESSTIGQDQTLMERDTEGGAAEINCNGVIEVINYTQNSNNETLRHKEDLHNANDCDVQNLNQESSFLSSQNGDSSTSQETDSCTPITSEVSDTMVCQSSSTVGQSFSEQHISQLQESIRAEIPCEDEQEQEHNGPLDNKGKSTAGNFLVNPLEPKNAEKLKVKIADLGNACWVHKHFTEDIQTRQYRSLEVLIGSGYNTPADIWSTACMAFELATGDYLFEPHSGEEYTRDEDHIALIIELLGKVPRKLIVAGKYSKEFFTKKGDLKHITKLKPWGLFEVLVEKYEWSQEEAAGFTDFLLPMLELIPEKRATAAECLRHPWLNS
Protocol: Candidate compounds were serially diluted from 10 μM-0.5 nM and added to the reaction mixture, wells with omitted SRPK1 kinase and omitted compounds were also added as controls. All wells contained one percent DMSO. One micromolar ATP was added, wells minus ATP were used as background controls. The plate was then incubated at 30° C. for 10 minutes. An equal volume of Kinase-Glo (Promega, 25 μl) was added to each well and the plate read for luminescence using an Fluostar Optima (BMG Labtech).

[7] = assay type: cell-based
From the text: To test whether compounds of Formula (I) are safe to administer to patients we began a basic safety test of these compounds in vitro.

[8] = molecular target: human ether a go-go related gene (hERG) K+ channel (Homo sapiens (Human), UniProt Q12809); details: previously described (Gammons et al., 2013); cited from earlier work
Chain of human ether a go-go related gene (hERG) K+ channel (Q12809 whole entry): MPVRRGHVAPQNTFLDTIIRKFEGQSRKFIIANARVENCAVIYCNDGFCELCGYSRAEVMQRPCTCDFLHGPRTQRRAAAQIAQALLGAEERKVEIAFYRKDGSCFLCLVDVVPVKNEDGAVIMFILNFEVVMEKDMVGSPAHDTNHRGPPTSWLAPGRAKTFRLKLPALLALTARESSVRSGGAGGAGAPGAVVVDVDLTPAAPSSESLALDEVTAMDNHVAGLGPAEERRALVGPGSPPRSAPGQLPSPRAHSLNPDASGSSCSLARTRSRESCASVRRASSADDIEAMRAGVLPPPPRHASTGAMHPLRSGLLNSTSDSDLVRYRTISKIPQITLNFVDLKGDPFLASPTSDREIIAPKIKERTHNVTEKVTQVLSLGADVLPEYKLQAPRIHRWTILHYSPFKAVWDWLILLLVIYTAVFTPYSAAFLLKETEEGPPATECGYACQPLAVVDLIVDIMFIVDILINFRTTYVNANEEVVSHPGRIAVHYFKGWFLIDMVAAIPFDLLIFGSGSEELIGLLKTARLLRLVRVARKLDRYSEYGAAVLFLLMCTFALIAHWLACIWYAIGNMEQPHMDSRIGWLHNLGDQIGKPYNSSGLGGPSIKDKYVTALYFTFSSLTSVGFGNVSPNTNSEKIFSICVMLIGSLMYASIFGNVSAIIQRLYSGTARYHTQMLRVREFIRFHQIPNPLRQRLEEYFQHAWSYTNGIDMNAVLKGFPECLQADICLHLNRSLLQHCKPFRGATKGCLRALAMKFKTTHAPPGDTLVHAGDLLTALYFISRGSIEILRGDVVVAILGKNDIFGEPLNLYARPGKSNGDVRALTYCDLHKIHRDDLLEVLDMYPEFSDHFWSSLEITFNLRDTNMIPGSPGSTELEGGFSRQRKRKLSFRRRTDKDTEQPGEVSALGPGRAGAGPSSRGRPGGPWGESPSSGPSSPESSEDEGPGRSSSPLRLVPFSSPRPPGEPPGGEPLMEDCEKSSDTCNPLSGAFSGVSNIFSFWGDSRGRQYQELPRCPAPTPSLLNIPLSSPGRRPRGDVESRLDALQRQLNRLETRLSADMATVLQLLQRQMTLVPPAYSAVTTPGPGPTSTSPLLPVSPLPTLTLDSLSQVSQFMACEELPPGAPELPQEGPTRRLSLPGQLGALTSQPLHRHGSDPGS

[9] = test system: choroidal neovascularisation; details: mouse models of CNV, previously shown; cited from earlier work
SRPK1 [10] = molecular target: T1, SRPK1; details: read-out: IC50 of SRPK1 inhibition; previously shown; cited from earlier work
[11] = Scleral permeability, modified Ussing chamber, porcine eye tissue; assay type: in vitro ADME; details: porcine eyes
Protocol: as §1, §2

VEGF165b [12] = details: cited from earlier work
[13] = monthly 0.5 mg, at one year; cited from earlier work

Molecule: O=C(Nc1cc(C(F)(F)F)ccc1N1CCN(Cc2ccccn2)CC1)c1ccc(-c2ccncc2)o1 [Compound 12]
solubility in water [1]: more freely soluble in water
SRSF1 cellular localisation (SRSF1 localisation [2]): inhibited cellular localisation
half-life (in vitro; microsomes): 1.02 h
detection in the vitreous [3]: more SPHINX31 than pazopanib
expression of anti-angiogenic VEGF165b (VEGF165b [4]): dose dependent increase in VEGF165b
SRSF1 cellular localisation (SRSF1 localisation [5]): inhibited cellular localisation

Molecule: CN1CCN(c2ccc(C(F)(F)F)cc2NC(=O)c2cccs2)CC1 [Compound 40]
IC50 (SRPK1 [6]): 4.69 µM

Molecule: CN(C)CCN1CCN(c2ccc(C(F)(F)F)cc2NC(=O)c2ccc(-c3ccncc3)o2)CC1 [SPHINX7]
doses at which toxic [7]: greater than 10 μM

Molecule: Cc1ccc(C(=O)Nc2cc(C(F)(F)F)ccc2N2CCOCC2)o1 [SPHINX]
hERG inhibition [8]: did not inhibit hERG; also recorded: do not inhibit hERG
eye drop concentration of maximum anti-angiogenic effect [9]: 10 µg/mL

Molecule: O=C(Nc1cc(C(F)(F)F)ccc1N1CCCCC1)c1ccncc1 [SRPIN340]
hERG inhibition [8]: do not inhibit hERG
IC50 (SRPK1 [10]): 1 µM
eye drop concentration of maximum anti-angiogenic effect [9]: 10 µg/mL

Molecule: Cc1ccc(Nc2nccc(N(C)c3ccc4c(C)n(C)nc4c3)n2)cc1S(N)(=O)=O [pazopanib]
accumulation in sclera and RPE/Choroid layer [11]: accumulated in the sclera and in the RPE/Choroid layer
penetration into retina and vitreous [11]: did not penetrate the retina
detection in retina and vitreous ([3]; 4 hrs): could not
detection in the vitreous [3]: detected

Molecule: bevicizumab: an anti-VEGF antibody from which Lucentis was derived
binding of VEGF165b versus VEGF165 (VEGF165b [12]): equal potency

B1: Lucentis: a novel humanized anti-VEGF antibody fragment (antibody, chains of the INN, looked up, V domains shown)
VH: EVQLVESGGGLVQPGGSLRLSCAASGYDFTHYGMNWVRQAPGKGLEWVGWINTYTGEPTYAADFKRRFTFSLDTSKSTAYLQMNSLRAEDTAVYYCAKYPYYYGTSHWYFDVWGQGTLVTVSS
VL: DIQLTQSPSSLSASVGDRVTITCSASQDISNYLNWYQQKPGKAPKVLIYFTSSLHSGVPSRFSGSGSGTDFTLTISSLQPEDFATYYCQQYSTVPWTFGQGTKVEIK
modifications: Fab
notes: a novel humanized anti-VEGF antibody fragment
patients who maintained visual acuity (loss of <15 letters) [13]: approximately 95%
patients with improved vision (gain of ≧15 letters) [13]: ≤ 40%

Results, then the molecule that gave them:

solubility in water [1]: more freely soluble in water
Molecule: O=C(Nc1cc(C(F)(F)F)ccc1N1CCN(Cc2cccnc2)CC1)c1ccc(-c2ccncc2)o1 [Compound 13]

solubility in water [1]: more freely soluble in water
Molecule: O=C(Nc1cc(C(F)(F)F)ccc1N1CCN(Cc2ccncc2)CC1)c1ccc(-c2ccncc2)o1 [Compound 14]

IC50 (SRPK1 [6]): 0.0141 µM
Molecule: O=C(Nc1cc(C(F)(F)F)ccc1N1CCN(Cc2ccccc2)CC1)c1ccco1 [Compound 19]

IC50 (SRPK1 [6]): 0.0044 µM
half-life (in vitro; liver microsomes): 0.283 h
Molecule: Cc1ccc(C(=O)Nc2cc(C(F)(F)F)ccc2N2CCN(Cc3ccccc3)CC2)o1 [Compound 20]

IC50 (SRPK1 [6]): 0.0046 µM
half-life (in vitro; liver microsomes): 1.04 h
Molecule: O=C(Nc1cc(C(F)(F)F)ccc1N1CCN(Cc2ccccc2)CC1)c1ccc(-c2cccnc2)o1 [Compound 21]

IC50 (SRPK1 [6]): 10 µM
Molecule: Cc1cnc(C(=O)Nc2cc(C(F)(F)F)ccc2N2CCN(Cc3ccccn3)CC2)o1 [Compound 27]

IC50 (SRPK1 [6]): 10 µM
Molecule: Cc1nnc(C(=O)Nc2cc(C(F)(F)F)ccc2N2CCN(Cc3ccccn3)CC2)o1 [Compound 28]

IC50 (SRPK1 [6]): 0.0019 µM
Molecule: CSc1nccc(CN2CCN(c3ccc(C(F)(F)F)cc3NC(=O)c3ccc(C)o3)CC2)n1 [Compound 31]

IC50 (SRPK1 [6]): 5.31 µM
Molecule: O=C(Nc1cc(C(F)(F)F)ccc1N1CCN(Cc2ccccn2)CC1)c1nc(-c2ccccc2)no1 [Compound 34]

IC50 (SRPK1 [6]): 0.493 µM
Molecule: CN1CCN(c2ccc(C(F)(F)F)cc2NC(=O)c2nc(-c3ccccc3)c[nH]2)CC1 [Compound 41]

IC50 (SRPK1 [6]): 0.183 µM
Molecule: O=C(Nc1cc(C(F)(F)F)ccc1N1CCN(Cc2cnccn2)CC1)c1ccco1 [Compound 43]
